How the values were obtained:
[1] = tested on: patient-derived rtM204I mutant virus; type: cell-based, Hepatitis B virus (HBV); conditions: untreated control group = 100%, Huh-7 cells, 4th day, clevudine 0.9 μM, adefovir dipivoxil 6.3 μM, combination 0.9 μM+6.3 μM
Procedure: About 20˜24 hours before the transfection, Huh-7 cell lines were maintained on 6-well plates to be 4×10^5 cells/well with 70˜80% confluence and then cultured. 2 hours before the transfection, the culture medium was removed from the stabilized cells and replaced with a serum-free medium containing clevudine, adefovir dipivoxil or a combined formulation of clevudine and adefovir dipivoxil in a predetermined dilution to be 2 mL/well. Using lipofectamine (Invitrogen), the cells were transfected with HBV mutant DNA to be 2 μg per well. The concentration of antiviral agents was 0.9 μM of clevudine, 6.3 μM of adefovir dipivoxil, 0.9 μM+6.3 μM of clevudine+adefovir dipivoxil or 1.8 μM+6.3 μM of clevudine+adefovir dipivoxil. About 5 hours after the transfection, the culture medium was replaced with that treated with the antiviral agents, and then the medium was replaced every 24 hours.
On the 4th day of the transfection, the cells were washed with cold PBS and then collected. The collected cells were lysed with cold Hepes lysis buffer (1% NP-40) and then centrifuged. The supernatant was treated with nuclease to remove DNA of the transfected cells. Core protein of capsid form was precipitated with 26% PEG solution. The capsid protein was removed by 0.5% SDS solution and Proteinase K and then HBV DNA in the capsid was separated. […]

HBV = assay: Antiviral efficacy test in the treatment of chronic hepatitis B patients; type: in vivo; conditions: n=20 per group
Procedure: A total of 40 patients were divided into two groups, to one of which 30 mg of clevudine was administered daily for 24 weeks (group treated with clevudine only; n=20). To another group, a combined formulation of 30 mg of clevudine and 10 mg of adefovir dipivoxil was administered daily for 12 weeks, then administration of adefovir dipivoxil was stopped and only 30 mg of clevudine was administered daily for the remaining period (group treated with combined formulation of clevudine+adefovir dipivoxil; n=20).

wild-type HBV = assay: microbe, parasite or virus in culture; type: cell-based, Hepatitis B virus (HBV); conditions: Huh-7 cells, 4th day of transfection, clevudine 0.9 μM
Procedure: About 20˜24 hours before the transfection, Huh-7 cell lines were maintained on 6-well plates to be 4×10^5 cells/well with 70˜80% confluence and then cultured. 2 hours before the transfection, the culture medium was removed from the stabilized cells and replaced with a serum-free medium containing clevudine, adefovir dipivoxil or a combined preparation of clevudine and adefovir dipivoxil in a predetermined dilution to be 2 mL/well. Using lipofectamine (Invitrogen), the cells were transfected with wild-type HBV DNA to be 2 μg per well. The concentration of antiviral agents was 0.9 μM of clevudine, 6.3 μM of adefovir dipivoxil, 0.9 μM+6.3 μM of clevudine+adefovir dipivoxil or 1.8 μM+6.3 μM of clevudine+adefovir dipivoxil. About 5 hours after the transfection, the culture medium was replaced with that treated with the antiviral agents, and then the medium was replaced every 24 hours.
On the 4th day of the transfection, the cells were washed with cold PBS and then collected. […]
Electrophoresis was carried out with the separated HBV DNA on 1% agarose gel, which was then transferred to a positively charged nylon membrane. […] An antiviral effect of the combined formulation of clevudine and adefovir dipivoxil was determined using phosphor imager compared with single treatment of clevudine or adefovir dipivoxil.

Compound: Cc1cn([C@H]2O[C@@H](CO)[C@H](O)[C@H]2F)c(=O)[nH]c1=O [clevudine, 1-(2′-deoxy-2′-fluoro-β-L-arabinofuranosyl)thymine]
- rate of mutant virus replication [1]: 87.43%
- number of HBV DNA copy (HBV; 12 weeks after the administration, 30 mg clevudine daily, or 30 mg clevudine + 10 mg adefovir dipivoxil daily): −2.67 log 10 copies/mL
- number of HBV DNA copy (HBV; 24 weeks after the administration, 30 mg clevudine daily for 24 weeks, or combination for 12 weeks then only 30 mg clevudine daily): −4.15 log 10 copies/mL
- inhibition at 0.9 µM (wild-type HBV; Hepatitis B virus, concentration of the combination not stated, read-out: inhibition rate of wild-type HBV replication): 34.1%
- rate of wild-type HBV replication (wild-type HBV; untreated control group = 100%, adefovir dipivoxil 6.3 μM, concentration of the combination not stated (0.9 μM+6.3 μM or 1.8 μM+6.3 μM)): 65.91%

Reference: patent publication US20130059812A1 (priority 2010, published 2013)
